Test results reported in US7476729B2, “Dbait and uses thereof” (Institut Curie, priority 2003, dated 2009).
Entries after “also recorded” stand apart in the source; their conditions may differ.

Key:
[1] = system: γ-H2AX foci in GMA32 cells; assay: Immunodetection of γ-H2AX DSB foci in GMA32 cells; type: cell-based, Chinese hamster; details: GMA32, Dbait with lipofectamine, no irradiation
Description: Under the same conditions, the immunodetection of DSB foci of γ-H2AX phosphorylated on serine 139 by γ-H2AX labeling (bright dots or patches in nuclei) was performed in the untreated GMA32 cells, the cells transfected alone, or transfected with different Dbait molecules by lipofectamine. The counterstaining of cell membranes and nuclei were achieved by FITC-DiOC6 and DAPI. Similar effects of Dbait molecules were observed (FIG. 3.2). […] This provides visual evidence that these Dbait molecules can be used for trapping proteins involved in DSB repair via NHEJ pathway.
For immunodetection, the cells were grown on coverslip in 5 cm diameter Petri dishes 24 hours before the transfection with different Dbait molecules. One day after the transfection, FITC-DiOC6 (Molecular probes) was added in the medium 5 minutes at 37° C. (to counterstain the membranes). After 3 washing cycles, the cells were fixated with 4% PFA for 20 minutes.
After additional washing, γ-H2AX phosphorylated on serine 139 (γ-H2AX) was detected with. rabbit anti-γ-H2AX antibody (4411-PC, Trevigen) diluted 1/100 in 1×PBS, 1% BSA. Cells were washed three times with 1×PBS, 0.5%, TritonX-100, then incubated for 1 hour at room temperature with goat anti-rabbit antibodies Alexa 594 (Molecular Probes) diluted 1/100 in 1×PBS, 1% BSA. Cells were visualized by epifluorescence microscopy.

[2] = system: p53 serine 15 phosphorylation in GMA32 cells; assay: Western blot of p53 serine 15 phosphorylation in GMA32 cells; type: cell-based, Chinese hamster; details: GMA32, Dbait with lipofectamine, no irradiation or mitotic inhibitor
Description: Further experiment was carried out in order to look for evidence of DNA damage signaling. The protein p53 is a well known major protein in mediating DNA damage signaling and in coordinating appropriate responses (DNA repair, apoptosis, etc.) by changing its phosphorylation status. In particular, the phosphorylation of serine 15 residue is involved in the interaction with MDM2 protein which acts as a feed back control Thus, the phosphorylation status of the serine 15 of p53 was assessed by Western blot.
For Western blot analysis, cells were lysed in Laemmli buffer. Equal amounts of lysates were resolved in 12% polyacrylamide gels. Proteins were transferred to nitrocellulose membranes, which were blocked with 5% nonfat milk (1 hour) before overnight incubation with anti-p53Ser15 antibody (9284, Cell Signaling) diluted 500 folds in TBST buffer (10 mM Tris-HCl pH7.5, 150 mM NaCl, 0.1% Tween 20) containing 5% nonfat milk. Blots were then incubated with horseradish peroxidase-conjugated goat anti-rabbit IgG secondary antibodies (P0448, Dako) diluted 1/5000 in TBST. Protein-antibody complexes were detected by enhanced chemiluminescence (RPN2106 ECL, Amersham).

GMA32 cells [3] = assay: FACS analysis of sub-G1 cells (cell death) in GMA32 cells; type: cell-based, Chinese hamster; details: GMA32, 4.5 μg Dbait with lipofectamine, no irradiation or mitotic inhibitor
Description: (§1) The GMA32 Chinese hamster fibroblast cells permissive of DNA breaks were maintained in MEM medium (Gibco) supplemented with 1 mM sodium pyruvate, 2 mM glutamine, 1×MEM non essential amino acids, 1× penicillin/streptomycin and 10% horse serum. Typically, 2×10^5 to 4×10^5 cells were seeded in medium without antibiotics, in 5 cm diameter Petri dishes 24 hours before the transfection of different Dbait molecules (4.5 μg) with lipofectamine 2000 (LifeTechnologies) as transfection agent (in a 1:3 ratio), according to the manufacturer's instructions. At the end of the transfection the cells were either irradiated (4 Gy) or treated with mitotic inhibitors: nocodazole (200 nM), navelbine (100 nM) or taxol (200 nM).
(§2) About 16 hour later the drug was removed and the cells were allowed to recover. Cell irradiation was performed with γ-rays from a ^137Cs source. After a 24 hours recovery, the cells were collected and used either for FACS, western blot analyses or to determine the clonogenicity (survival) and the effect of each treatment.
The M1 phase represents the percentage of cells in sub-G1 stage indicative of cell death.
The experiments were performed with a FACS calibur flow cytometer (Becton Dickinson). Cells were collected, suspended in 1 ml of cold GM buffer (6.5 mM glucose, 137 mM NaCl, 5.4 mM KCl, 2 mM Na2HPO4, 1 mM KHPO4, 0.5 mM EDTA), and stored at 4° C. for at least 2 hours after addition of 3 ml of cold 100% ethanol.
At that stage, cells were eventually washed with 1×PBS, then stained for 30 minutes at room temperature in PI solution (50 μg/ml propidium iodide, 25 μg/ml RNase A in 1×PBS buffer). 10,000 events were analyzed with Cellquest software, and cell aggregates were gated out. The percentage of cells with a sub-G1 content of DNA was scored.

Ku complex = target: T1, Ku complex (Homo sapiens, UniProt P12956+P13010); assay: Band-shift assay with Hep2 nuclear protein extracts; type: binding; details: 10 nM 32P radio-labelled Dbait, 0-320 ng/μL Hep2 nuclear proteins, 30° C., 10 minutes
T1 construct: in the presence of nuclear protein extracts from Hep2 cells according to standard protocol; endogenous in cells; host or cells: Hep2 cells (nuclear protein extract)
T1 sequence (P12956 whole entry): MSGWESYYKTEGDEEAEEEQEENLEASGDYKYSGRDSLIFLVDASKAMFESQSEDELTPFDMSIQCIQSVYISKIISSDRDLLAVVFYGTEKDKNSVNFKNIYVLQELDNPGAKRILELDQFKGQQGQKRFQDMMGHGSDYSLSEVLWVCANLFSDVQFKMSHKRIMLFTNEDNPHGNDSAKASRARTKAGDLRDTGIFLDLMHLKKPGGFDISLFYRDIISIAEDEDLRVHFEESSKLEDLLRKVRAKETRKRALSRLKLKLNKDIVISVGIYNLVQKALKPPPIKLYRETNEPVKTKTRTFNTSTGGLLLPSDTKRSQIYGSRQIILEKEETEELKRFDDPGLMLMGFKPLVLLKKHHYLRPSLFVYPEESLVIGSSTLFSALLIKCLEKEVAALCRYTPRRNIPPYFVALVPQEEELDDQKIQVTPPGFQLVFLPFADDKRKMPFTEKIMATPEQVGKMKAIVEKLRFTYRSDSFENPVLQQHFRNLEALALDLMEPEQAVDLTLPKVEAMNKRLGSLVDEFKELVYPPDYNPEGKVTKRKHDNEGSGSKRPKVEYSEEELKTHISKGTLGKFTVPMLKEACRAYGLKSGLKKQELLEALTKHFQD
T1 sequence (P13010 whole entry): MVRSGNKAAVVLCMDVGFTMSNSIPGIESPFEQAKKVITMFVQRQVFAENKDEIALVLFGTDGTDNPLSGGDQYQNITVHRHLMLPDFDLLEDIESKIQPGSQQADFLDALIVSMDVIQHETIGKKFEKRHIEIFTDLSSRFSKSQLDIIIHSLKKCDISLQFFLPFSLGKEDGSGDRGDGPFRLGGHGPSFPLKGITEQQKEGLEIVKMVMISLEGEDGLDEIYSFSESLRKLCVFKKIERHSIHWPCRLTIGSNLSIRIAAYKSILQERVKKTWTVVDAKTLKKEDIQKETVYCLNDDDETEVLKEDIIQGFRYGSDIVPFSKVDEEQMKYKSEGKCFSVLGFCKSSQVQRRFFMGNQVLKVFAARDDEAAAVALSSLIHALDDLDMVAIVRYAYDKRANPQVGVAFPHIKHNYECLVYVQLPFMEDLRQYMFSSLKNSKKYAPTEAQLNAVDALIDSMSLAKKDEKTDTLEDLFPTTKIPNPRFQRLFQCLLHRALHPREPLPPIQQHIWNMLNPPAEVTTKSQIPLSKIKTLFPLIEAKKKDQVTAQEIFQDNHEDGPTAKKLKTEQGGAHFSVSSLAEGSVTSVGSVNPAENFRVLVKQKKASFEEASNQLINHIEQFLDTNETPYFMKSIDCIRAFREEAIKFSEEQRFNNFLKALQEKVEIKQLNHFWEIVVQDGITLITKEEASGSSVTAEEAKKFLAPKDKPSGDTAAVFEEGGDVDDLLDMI
Description: As the first step to dissect the mechanism of action of Dbait molecules, a series of band-shift assays were carried out with different ^32P radio-labelled Dbait molecules in the presence of nuclear protein extracts from Hep2 cells according to standard protocol. Typically, 10 nM ^32P radio-labelled Dbait molecules were incubated in the presence of various concentrations of nuclear proteins (0, 10, 20, 40, 80, 160, and 320 ng/μL) at 30° C. for 10 minutes in TBE buffer. Then the samples were loaded on a 5% acrylamide native gel. The electrophoresis was run at 95V for 2 hours at 4° C. The gel was dried and scanned by phosphorimager (Molecular Dynamics).
For 32-bp Dbait molecules, the intensity of the retarded band 1 increases and then decreases as the concentration of protein increases, while the intensity of the retarded band 2 increases as a function of the concentration of nuclear protein extracts.
It is likely that band 1 has one Ku70/80 complex bound to the 16 to 32-bp Dbait, whereas the band 2 has two Ku70/80 complexes bound to the 32-bp Dbait molecules. Control experiments performed with purified Ku proteins confirmed this interpretation.

GMA32 cells [4] = assay: Clonogenicity (clonal survival) assay in GMA32 cells with irradiation or mitotic inhibitors; type: cell-based, Chinese hamster
Description: as §1, §2
The effect of radiosensitization and chemosensitization of Dbait molecules in GMA32 cells was evaluated by clonogenicity (clonal survival) assay. For the clonogenicity assay, serial dilutions were made after counting the cells to seed 5 cm Petri dishes with different amounts of cells. The number of cells range from 100-200 (control cells) to 3000 (transfected or/and treated cells). Ten days after, the cells (forming clone) were fixed with 4% paraformaldehyde (20 minutes), then colored with methylene blue (15 minutes), and the number of clone in each plate (in triplicates) was scored.
These drugs are known as potent inhibitors of either polymerization or depolymerization of microtubules. Dbait32 (SEQ ID NO: 1) and Dait32H (SEQ ID NO: 1) were able to enhance to cytotoxic activity of these mitotic inhibitors.

[5] = system: γ-H2AX foci in Hela cells; assay: Immunodetection of DSB sites (γ-H2AX foci) in Hela cells after irradiation; type: cell-based, human; details: 2 μg Dbait, two hours after 2 Gy irradiation
Description: Transfection and irradiation protocoles were similar to those described above. For immunodetection, the cells were grown on surface coverslip in 5 cm diameter Petri dishes, transfected with 2 μg Dbait32H-FITC (SEQ ID NO: 1) molecules labeled with FITC with Superfect (Qiagene) according to the manufacturer's instruction. Four hours after the beginning of the transfection, cells were irradiated (2 Gy), then rest for 2 hours in the medium at 37° C. After 3 washing cycles, the cells were fixated with 2% PFA for 10 minutes. After one additional washings, the presence of γ-H2AX was detected with rabbit anti-γ-H2AX antibody (4411-PC, Trevigen) diluted 1/100 in 1×PBS, 1% BSA. Cells were washed three times with 1×PBS, 0.5% TritonX-100, then incubated for 1 hour at room temperature with rhodamine-conjugated goat anti-rabbit antibodies diluted 1/100 in 1×PBS, 1% BSA. Cells were visualized by epifluorescence microscopy.
Left panel: fluorescence of Dbait32H-FITC (SEQ ID NO: 1) (bright dots and patches) and DBS foci detected by immunofluorescence of γ-H2AX antibody in nuclei; Right panel: the same image of nuclei with DSB foci detected by immunofluorescence of γ-H2AX antibody and DAPI counterstaining. The arrows at the lower left corner show the absence of Dbait32H-FITC (SEQ ID NO: 1) and γ-H2AX signal in nucleus. […]

[6] = system: tumor tissues of K-Ras^V12G×Apc^1638N transgenic mouse; assay: Fluorescence microscopy of digestive tumor tissue of a treated transgenic mouse; type: in vivo; details: oral, with 5FU+CPT11 for three days, sacrificed two hours after the last treatment
Description: Tumor samples prepared from animals treated with Dbait molecules tagged by fluorescein (Dbait32H-FITC) (SEQ ID NO: 1) and 5FU+CPT11 were analysed using immunofluorescence staining methods. γ-H2AX labeled foci were costained with fluorescent Dbait molecules, in reminiscence of the in vitro finding (cf. example 3.3 and 4). […] Then the tumor tissues were sampled and frozen at −80° C. For the analysis, 5 μm histological samples were made from the frozen tumor tissues by cryostat. DNA repair foci were detected by immunofluorescence with polyclonal rabbit anti-γ-H2AX antibody (Trevigen) diluted 1/500 in PBS, then with goat anti-rabbit antibody tagged by cyanine 3 (Jackson) diluted 1/200 in PBS. The samples were also counterstained by DAPI Samples were visualized by epifluorescence microscopy. […] Similar pattern was found for γ-H2AX sites (FIG. 5.3, panel B, right). The co-localized Dbait32H-FITC (SEQ ID NO: 1) and γ-H2AX signals were almost observed.

In the case of “Dbait32: 32-bp linear double-stranded Dbait molecule (SEQ ID NO: 1) (ACGCACGGGTGTTGGGTCGTTTGTTCGGATCT; DNA, backbone not given here; linear DNA duplex, phosphorothioates at blunt ends, exact count not readable, further chemistry not fully specified)”, the “γ-H2AX DSB foci (cell response)” value [1] is reported as “effectively trigger similar cell response as if DNA damages were occurred in nuclei”, the “phosphorylation of p53 serine 15” value [2] is reported as “highly phosphorylated” and the “cell death (cells in sub-G1 stage)” value (GMA32 cells [3]) is reported as “Significant cell death”. For the same substance, the “retarded bands in band-shift assay” value (Ku complex) was “two retarded band”, the “chemosensitization (clonal survival)” value (GMA32 cells [4]; GMA32, 200 nM nocodazole, 100 nM navelbine (vinorelbine) or 200 nM taxol (paclitaxel)) was “chemosensitization was also observed” and the “radiosensitization (clonal survival)” value (GMA32 cells [4]; GMA32, 4 Gy irradiation) was “radiosensitization to 4 Gy irradiation was observed”.
With “Dbait32H-FITC: Dbait32H labelled via a T tagged with fluorescein (DNA ACGCACGGGTGTTGGGTCGTTTGTTCGGATCT; DNA, backbone not given here; fluorescein on a T, hairpin, hexaethyleneglycol loop, phosphorothioate blunt end, further chemistry not fully specified)” the “persistence of DSB sites (γ-H2AX foci)” value [5] was “DSB sites persisted” and the “distribution in tumor tissues” value [6] was “heterogeneously disseminated in tumor tissues; also recorded: preferential nucleus localization”.
